# According to ChEMBL document CHEMBL1201862, “PubChem BioAssay data set” (2004):
#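 Following 48 hours of exposure in 96-well plates, responses at five concentrations were used to interpolate endpoints linearly. GI50 is the concentration that inhibits growth by half.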 The source made the active and inactive calls. No stated cut-off is given here; in the data, active = GI50 up to about 1.1 µM and inactive = higher.
# Legend:
# Test in all cases: DTP human tumour cell line panel, 48 h
# ACHN = tested on: ACHN
# CCRF-CEM = tested on: CCRF-CEM
# HOP-92 = tested on: HOP-92
# K562 = tested on: K562
# LXFL 529 = tested on: LXFL 529
# NCI-H23 = tested on: NCI-H23
# NCI-H522 = tested on: NCI-H522
# OVCAR-3 = tested on: OVCAR-3
# SF-268 = tested on: SF-268
# SK-MEL-2 = tested on: SK-MEL-2
# SW-620 = tested on: SW-620
# UACC-62 = tested on: UACC-62
# M14 = tested on: M14
# SNB-78 = tested on: SNB-78
# BT-549 = tested on: BT-549
# DU-145 = tested on: DU-145
# MDA-MB-231 = tested on: MDA-MB-231
# MDA-N = tested on: MDA-N
# NCI/ADR-RES = tested on: NCI/ADR-RES
# T47D = tested on: T47D
Structure (SMILES),GI50 (ACHN),GI50 (CCRF-CEM),GI50 (HOP-92),GI50 (K562),GI50 (LXFL 529),GI50 (NCI-H23),GI50 (NCI-H522),GI50 (OVCAR-3),GI50 (SF-268),GI50 (SK-MEL-2),GI50 (SW-620),GI50 (UACC-62),GI50 (M14),GI50 (SNB-78),GI50 (BT-549),GI50 (DU-145),GI50 (MDA-MB-231),GI50 (MDA-N),GI50 (NCI/ADR-RES),GI50 (T47D)
CC(O)c1ccc[n+](Cc2ccccc2)c1 (stereo not given),> 400 µM (inactive),> 400 µM (inactive),> 400 µM (inactive),> 400 µM (inactive),> 400 µM (inactive),> 400 µM (inactive),> 400 µM (inactive),> 400 µM (inactive),> 400 µM (inactive),> 400 µM (inactive),> 400 µM (inactive),> 400 µM (inactive),–,–,–,–,–,–,–,–
C=CC/N=C1\NC(=O)C(CC(=O)Nc2ccc(C)cc2)S1 (stereo not given),> 100 µM (inactive),> 100 µM (inactive),–,> 100 µM (inactive),> 100 µM (inactive),> 100 µM (inactive),> 100 µM (inactive),> 100 µM (inactive),> 100 µM (inactive),> 100 µM (inactive),> 100 µM (inactive),> 100 µM (inactive),> 100 µM (inactive),–,–,–,–,–,–,–
CN(C)CCNC(=O)c1ccc(Cl)c2c(Nc3ccc(S(N)(=O)=O)cc3)c3ccccc3nc12,1.67 µM (inactive),–,1.43 µM (inactive),0.612 µM (active),0.564 µM (active),2.97 µM (inactive),0.462 µM (active),2.42 µM (inactive),1.41 µM (inactive),1.75 µM (inactive),0.173 µM (active),1.56 µM (inactive),2.34 µM (inactive),–,–,–,–,–,–,–
O=c1[nH][nH]c(=O)[nH]1,–,> 100 µM (inactive),> 100 µM (inactive),> 100 µM (inactive),–,> 100 µM (inactive),> 100 µM (inactive),> 100 µM (inactive),> 100 µM (inactive),> 100 µM (inactive),> 100 µM (inactive),> 100 µM (inactive),> 100 µM (inactive),> 100 µM (inactive),–,–,–,–,–,–
CCN1CCC(O)(c2ccc(Cl)c(Cl)c2)C(C(=O)c2ccc(Cl)c(Cl)c2)C1 (stereo not given),13.3 µM (inactive),17.1 µM (inactive),14.5 µM (inactive),18 µM (inactive),16.2 µM (inactive),19.7 µM (inactive),3.71 µM (inactive),13.7 µM (inactive),18.2 µM (inactive),17.3 µM (inactive),19.5 µM (inactive),17 µM (inactive),16.7 µM (inactive),–,–,–,–,–,–,–
CC(=O)Nc1ccc(C(=O)NN2C(=O)C(Cl)C2c2ccccc2O)cc1 (stereo not given),> 100 µM (inactive),4.9 µM (inactive),47.6 µM (inactive),> 100 µM (inactive),> 100 µM (inactive),19.7 µM (inactive),36.2 µM (inactive),3.26 µM (inactive),84.7 µM (inactive),15.7 µM (inactive),> 100 µM (inactive),37.2 µM (inactive),23.8 µM (inactive),–,–,–,–,–,–,–
CCN(CC)C(=O)Cn1c(C)cc2ccccc21,> 100 µM (inactive),> 100 µM (inactive),> 100 µM (inactive),> 100 µM (inactive),–,> 100 µM (inactive),> 100 µM (inactive),> 100 µM (inactive),> 100 µM (inactive),> 100 µM (inactive),> 100 µM (inactive),> 100 µM (inactive),> 100 µM (inactive),–,> 100 µM (inactive),> 100 µM (inactive),> 100 µM (inactive),> 100 µM (inactive),> 100 µM (inactive),> 100 µM (inactive)
COc1cccc(Nc2nc(N)nc(N)c2N=O)c1,17.3 µM (inactive),23.2 µM (inactive),7.14 µM (inactive),31.3 µM (inactive),–,15.3 µM (inactive),8.65 µM (inactive),15.6 µM (inactive),14.7 µM (inactive),31 µM (inactive),31.3 µM (inactive),15.5 µM (inactive),30.8 µM (inactive),–,28 µM (inactive),13.2 µM (inactive),28.5 µM (inactive),30.8 µM (inactive),17.1 µM (inactive),2.12 µM (inactive)
COc1ccc(/C=C2\N=C(c3ccccc3)N(NC3=NC(=O)CC(=O)N3)C2=O)cc1,> 100 µM (inactive),39.2 µM (inactive),> 100 µM (inactive),> 100 µM (inactive),–,> 100 µM (inactive),> 100 µM (inactive),> 100 µM (inactive),> 100 µM (inactive),> 100 µM (inactive),> 100 µM (inactive),> 100 µM (inactive),> 100 µM (inactive),–,> 100 µM (inactive),> 100 µM (inactive),> 100 µM (inactive),> 100 µM (inactive),> 100 µM (inactive),> 100 µM (inactive)
COc1cc2c(cc1OCCCCCN1C(=O)c3cccc4cccc(c34)C1=O)N=C[C@@H]1CCCN1C2=O,0.167 µM (active),0.0142 µM (active),0.142 µM (active),0.114 µM (active),–,0.222 µM (active),0.0336 µM (active),0.184 µM (active),0.207 µM (active),0.223 µM (active),0.278 µM (active),0.13 µM (active),0.24 µM (active),–,0.244 µM (active),0.255 µM (active),0.286 µM (active),0.207 µM (active),0.421 µM (active),0.13 µM (active)
CCOC(=O)C1=C(C(=O)OCC)SC2(S1)C(C(=O)OCC)=C(C(=O)OCC)Sc1c2ssc1=O,1.72 µM (inactive),0.16 µM (active),1.35 µM (inactive),0.474 µM (active),–,1.93 µM (inactive),1.36 µM (inactive),1.69 µM (inactive),1.97 µM (inactive),2.17 µM (inactive),0.361 µM (active),1.94 µM (inactive),2.04 µM (inactive),–,1.94 µM (inactive),0.857 µM (active),2 µM (inactive),1.97 µM (inactive),2.71 µM (inactive),1.76 µM (inactive)
COc1ccc(Cl)cc1NC(=O)O/N=C(\Cl)C(C)C,2.12 µM (inactive),1.04 µM (active),1.97 µM (inactive),1.98 µM (inactive),–,17.6 µM (inactive),0.752 µM (active),6 µM (inactive),21.5 µM (inactive),18.7 µM (inactive),2.7 µM (inactive),12.9 µM (inactive),3.28 µM (inactive),–,2.56 µM (inactive),19.3 µM (inactive),6.22 µM (inactive),11.4 µM (inactive),5.27 µM (inactive),3.38 µM (inactive)
COCc1nc2c(OC)c(-c3nc4ccc(N5CCN(C)CC5)cc4[nH]3)cc(OC)c2[nH]1,65.9 µM (inactive),27.5 µM (inactive),> 100 µM (inactive),38.8 µM (inactive),–,83.4 µM (inactive),31.1 µM (inactive),29.7 µM (inactive),> 100 µM (inactive),27.9 µM (inactive),40.6 µM (inactive),80.7 µM (inactive),17.4 µM (inactive),–,> 100 µM (inactive),31.3 µM (inactive),30.2 µM (inactive),33.1 µM (inactive),> 100 µM (inactive),65.2 µM (inactive)
